From patent US12258354B2, “AhR modulators” (IDEAYA BIOSCIENCES, INC., priority 2018, dated 2025)

What follows are molecules tested against T1, hAhR (Homo sapiens, UniProt P35869) (assay: DRE-luciferase transcriptional reporter assay in HEPG2 DRE-Luc cells, TCDD-induced (antagonist mode)). Conditions: relative IC50, 3 nM TCDD, 24-hour incubation, firefly luciferase readout.
T1 construct: Stably integrated DRE-luciferase cell lines were generated by transducing the both cell lines with Cignal XRE luciferase reporter; endogenous in cells; host or cells: HEPG2 DRE-Luc cells (only the XRE luciferase reporter was transduced)
T1 sequence (P35869 11-848): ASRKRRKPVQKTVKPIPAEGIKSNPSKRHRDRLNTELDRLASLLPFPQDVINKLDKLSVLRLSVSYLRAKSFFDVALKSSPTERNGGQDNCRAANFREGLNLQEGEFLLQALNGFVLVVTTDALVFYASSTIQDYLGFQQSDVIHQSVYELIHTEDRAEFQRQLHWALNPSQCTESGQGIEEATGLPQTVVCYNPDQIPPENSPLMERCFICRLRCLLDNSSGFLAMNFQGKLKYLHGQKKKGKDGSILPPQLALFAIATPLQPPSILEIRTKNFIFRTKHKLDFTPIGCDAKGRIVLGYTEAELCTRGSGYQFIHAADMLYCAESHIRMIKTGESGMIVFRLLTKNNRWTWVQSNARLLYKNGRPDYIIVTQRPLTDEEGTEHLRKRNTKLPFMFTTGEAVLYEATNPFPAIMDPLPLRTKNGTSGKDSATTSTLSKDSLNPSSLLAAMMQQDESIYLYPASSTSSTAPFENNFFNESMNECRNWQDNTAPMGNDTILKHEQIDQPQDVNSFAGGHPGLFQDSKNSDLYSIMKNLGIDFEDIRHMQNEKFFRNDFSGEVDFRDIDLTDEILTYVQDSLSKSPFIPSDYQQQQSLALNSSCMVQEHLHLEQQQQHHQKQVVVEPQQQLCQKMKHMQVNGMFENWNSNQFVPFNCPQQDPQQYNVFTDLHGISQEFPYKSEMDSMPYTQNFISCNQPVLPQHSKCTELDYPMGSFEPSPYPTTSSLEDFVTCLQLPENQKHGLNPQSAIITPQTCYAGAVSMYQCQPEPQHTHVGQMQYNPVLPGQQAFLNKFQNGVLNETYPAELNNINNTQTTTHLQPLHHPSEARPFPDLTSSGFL
Type: cell-based
Outline: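 Stable DRE(XRE)-luciferase HEPG2 clone seeded in OptiMEM with 0.5% heat-inactivated FBS, then given a semi-log compound dilution plus TCDD at 3 nM final. After 24 h, cells were lysed and firefly luminescence read. Response was normalised between TCDD and vehicle, and relative IC50 was taken as half-reduction between the fitted curve plateaus.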
An IC50 of 200 to 500 nM was found for `Cc1cc(N2CCn3ncc(C)c3C2=O)c(C)cc1-c1ccc2nc(C(F)(F)F)ccc2n1` [compound 018, 5-(2,5-dimethyl-4-(6-(trifluoromethyl)-1,5-naphthyridin-2-yl)phenyl)-3-methyl-6,7-dihydropyrazolo[1,5-a]pyrazin-4 (5H)-one] in this work.
An IC50 of under 200 nM was found for `Cc1cc(-c2ccc3cc(C(F)(F)F)ccc3n2)ccc1N1CCn2ncc(C)c2C1=O` [compound 008, 3-methyl-5-(2-methyl-4-(6-(trifluoromethyl)quinolin-2-yl)phenyl)-6,7-dihydropyrazolo-[1,5-a]pyrazin-4 (5H)-one] in this work.
An IC50 of under 200 nM was found for `Cc1cc(-c2ncc3cc(C(F)(F)F)ccc3n2)ccc1N1CCn2nc(CN3CCC(=O)CC3)c(C)c2C1=O` [Example 98, 3-methyl-5-(2-methyl-4-(6-(trifluoromethyl)quinazolin-2-yl)phenyl)-2-((4-oxopiperidin-1-yl)methyl)-6,7-dihydropyrazolo[1,5-a]pyrazin-4 (5H)-one] in this work.
An IC50 of 200 to 500 nM was found for `Cc1cc(-c2ncc3cc(C(F)(F)F)ccc3n2)ccc1N1CCOc2cncnc2C1=O` [compound 055, 8-(2-methyl-4-(6-(trifluoromethyl)quinazolin-2-yl)phenyl)-7,8-dihydropyrimido[4,5-f][1,4]oxazepin-9 (6H)-one] in this work.
An IC50 of under 200 nM was found for `Cc1cc(N2CCn3ncc(C)c3C2=O)c(C)cc1-c1ncc2nc(C(F)(F)F)ccc2n1` [compound 019, 5-(2,5-dimethyl-4-(6-(trifluoromethyl)pyrido[3,2-d]pyrimidin-2-yl)phenyl)-3-methyl-6,7-dihydropyrazolo[1,5-a]pyrazin-4 (5H)-one] in this work.
An IC50 of under 200 nM was found for `Cc1cc(-c2ncc3cc(C(F)(F)F)ccc3n2)ccc1N1CCn2ncc(C)c2C1=O` [compound 002, 3-methyl-5-(2-methyl-4-(6-(trifluoromethyl)quinazolin-2-yl)phenyl)-6,7-dihydropyrazolo[1,5-a]pyrazin-4 (5H)-one] in this work.
An IC50 of under 200 nM was found for `Cc1cc(-c2ccc3nc(C(F)(F)F)cc(C)c3n2)ccc1N1CCc2cnn(C)c2C1=O` [compound 028, 1-methyl-6-(2-methyl-4-(8-methyl-6-(trifluoromethyl)-1,5-naphthyridin-2-yl)phenyl)-1,4,5,6-tetrahydro-7H-pyrazolo[3,4-c]pyridin-7-one] in this work.
An IC50 of under 200 nM was found for `Cc1cc(-c2ncc3cc(C(F)(F)F)ccc3n2)ccc1N1CCn2ncc(CN3CCOCC3)c2C1=O` [compound 070, 5-(2-methyl-4-(6-(trifluoromethyl)quinazolin-2-yl)phenyl)-3-(morpholino-methyl)-6,7-dihydropyrazolo[1,5-a]pyrazin-4 (5H)-one] in this work.
An IC50 of under 200 nM was found for `Cc1cc(-c2ncc3cc(C(F)(F)F)ccc3n2)ccc1N1CCn2ncc(Br)c2C1=O` [compound 064, 3-bromo-5-(2-methyl-4-(6-(trifluoromethyl)quinazolin-2-yl)phenyl)-6,7-dihydropyrazolo[1,5-a]pyrazin-4 (5H)-one] in this work.
An IC50 of 500 to 1000 nM was found for `Cc1cc(N2CCOc3cnn(C)c3C2=O)c(F)cc1-c1ccc2nc(C(F)(F)F)ccc2n1` [compound 012, 7-(2-fluoro-5-methyl-4-(6-(trifluoromethyl)-1,5-naphthyridin-2-yl)phenyl)-1-methyl-6,7-dihydro-1H-pyrazolo[3,4-f][1,4]oxazepin-8 (5H)-one] in this work.
An IC50 of under 200 nM was found for `Cc1cc(N2CCOc3cnn(C)c3C2=O)c(C)cc1-c1ccc2nc(C(F)(F)F)cc(C)c2n1` [compound 005, 7-(2,5-dimethyl-4-(8-methyl-6-(trifluoromethyl)-1,5-naphthyridin-2-yl)phenyl)-1-methyl-6,7-dihydro-1H-pyrazolo[3,4-f][1,4]oxazepin-8 (5H)-one] in this work.
An IC50 of under 200 nM was found for `Cc1cc(-c2ncc3cc(C(F)(F)F)ccc3n2)ccc1N1CCn2nc(CN3CCN(C)CC3)c(C)c2C1=O` [Example 103, 3-methyl-5-(2-methyl-4-(6-(trifluoromethyl)quinazolin-2-yl)phenyl)-2-((4-methyl-piperazin-1-yl)methyl)-6,7-dihydropyrazolo[1,5-a]pyrazin-4 (5H)-one] in this work.
An IC50 of under 200 nM was found for `Cc1cc(-c2ncc3cc(C(F)(F)F)ccc3n2)ccc1N1CCn2nc(OCCO)c(C)c2C1=O` [compound 089, 2-(2-hydroxyethoxy)-3-methyl-5-(2-methyl-4-(6-(trifluoromethyl)quinazolin-2-yl)phenyl)-6,7-dihydropyrazolo[1,5-a]pyrazin-4 (5H)-one] in this work.
An IC50 of under 200 nM was found for `Cc1cc(-c2ncc3nc(C(F)(F)F)ccc3n2)ccc1N1CCOc2cnn(C)c2C1=O` [compound 001, 1-methyl-7-(2-methyl-4-(6-(trifluoromethyl)pyrido[3,2-d]pyrimidin-2-yl)phenyl)-6,7-dihydro-1H-pyrazolo[3,4-f][1,4]oxazepin-8 (5H)-one] in this work.
An IC50 of under 200 nM was found for `Cc1cc(-c2ncc3cc(C(F)(F)F)cc(C)c3n2)ccc1N1CCn2ncc(C)c2C1=O` [compound 009, 3-methyl-5-(2-methyl-4-(8-methyl-6-(trifluoromethyl)quinazolin-2-yl)phenyl)-6,7-dihydropyrazolo[1,5-a]pyrazin-4 (5H)-one] in this work.
An IC50 of under 200 nM was found for `Cc1cc(-c2ncc3cc(C(F)(F)F)ccc3n2)ccc1N1CC(COCc2ccccc2)n2ncc(C)c2C1=O` (centres unmarked) [compound 090, 7-((benzyloxy)methyl)-3-methyl-5-(2-methyl-4-(6-(trifluoromethyl)-quinazolin-2-yl)phenyl)-6,7-dihydropyrazolo[1,5-a]pyrazin-4 (5H)-one] in this work.
An IC50 of under 200 nM was found for `Cc1cc(-c2ncc3cc(C(F)(F)F)ccc3n2)ccc1N1CCn2ncc(C)c2S1(=O)=O` [Example 93, 8-methyl-2-(2-methyl-4-(6-(trifluoromethyl)quinazolin-2-yl)phenyl)-3,4-dihydro-2H-pyrazolo[1,5-e][1,2,5]thiadiazine 1,1-dioxide] in this work.
